Measured values taken from patent US20150064221A1, “COMPOUNDS HAVING IMMUNOMUDULATOR ACTIVITY” (priority 2012, published 2015).
“Also recorded” adds a separate entry of the source.

How the values were obtained:
Oral absorption in mice = assay type: in vivo
Method: (§1) The highest plasma concentrations generally occurred in 1-2 hours. […] The highest level of inhibition was ˜35% for 2C19 at a 30 μM concentration. […] Lastly, VGX-1027 is stable in human liver S9 fractions (with phase 1 and 2 cofactors) with t1/2>90 minutes, which indicates a low likelihood of metabolism in the liver.

CYP450 2C9 = CYP450 2C9 (Homo sapiens, UniProt P11712); experiment: CYP450 inhibition; assay type: in vitro ADME
Method: as §1

Metabolite monitoring = assay type: in vitro ADME; conditions: isoxazole ring disruption, single oxidation, single glucuronidation; any species
Method: as §1

[1] = test system: Thioglycollate-elicited macrophages; experiment: TNF-α production of macrophages treated with TLR agonists; assay type: cell-based; conditions: 10 μg/ml, 48 hours
Method: (A) Thioglycollate-elicited macrophages (1×10^6/ml) were stimulated with either LPS (5 μg/ml), zymosan (ZYM, 50 μg/ml), MDP (25 μg/ml), or Poly(I:C) (50 μg/ml) in the presence or absence of VGX-1027 (10 μg/ml). TNF-α was measured 48 hours post treatment. (B) Relative phosphorylations of 1-κBα and p38 were measured at the indicated time points following stimulation with LPS (5 μg/ml). The y-axis is presented as fold change in comparison to the values obtained from LPS-treated cultures alone. * p<0.05.
Thioglycollate-elicited macrophages were treated with multiple TLR agonists for 48 hours. TNF-α production was measured. The following agonists were used to activate the various TLRs.

[2] = test system: various asynchronously growing cell lines (HeLa, Jurkat, RD, PBMCs, U937); experiment: Cell viability (MTT assay, P1/Annexin V staining); assay type: cell-based; set-up: viability: dose or concentration left out as unconfirmed
Method: (§2) (A) Cell viability was measured via the MTT assay after 48 hours of treatment. (B) TNF-α levels were measured 48 hours post LPS (5 μg/ml) stimulation. (C) CD4 T cells were stimulated with either ConA (10 μg/ml) or anti-CD3/CD28 beads (10 μg/ml), and proliferation was measured via 3H-thymidine incorporation.
VGX-1027 was tested for whether its effects were cell-type-specific.

[3] = test system: U937s, RAWs, primary monocytes, PBMCs, Jurkats, undifferentiated CD4 T cells, 293Ts, RD cells; experiment: LPS-induced TNF-α production in different cell types; assay type: cell-based
Method: as §2
Next, the production of TNF-α was measured following LPS stimulation in these different cell types. […] VGX-1027-induced effects were not observed.

[4] = test system: In vitro-derived human DCs; experiment: LPS-induced cytokine production of dendritic cells; assay type: cell-based; conditions: LPS 5 μg/ml, 10 mM, 72 hours
Method: In vitro-derived human DCs were treated with LPS (5 μg/ml), with or without VGX-1027 (10 mM) for 72 hours. Concentrations of the cytokines in the media were measured via ELISA.

splenic DCs = experiment: LPS-induced maturation of dendritic cells in vivo; set-up: species or system mice; conditions: 0.5 mg/mouse 1 hour prior to LPS
Method: Mice were given VGX-1027 (0.5 mg/mouse) or a control, and then injected with LPS (25 μg/mouse) 1 hour later. At 3 hours post LPS administration, the mice were sacrificed, and (A) % of splenic DCs with CD86 and (B) MFI of CD86 from the CD86+ cells were measured.
To determine if this effect could be translated in vivo, mice were injected with LPS and the % of DCs that express CD86, which is a maturation marker, and the MR of CD86 on the positive cells were measured. The activation of DCs via CD86 expression, and not total cytokine levels, was measured in order to ascertain the direct affects of VGX-1027 on DCs. In vivo cytokine measurement could be confounded by other cytokine producing cells, such as macrophages. The mice were injected with LPS or LPS+VGX-1027 (VGX-1027 was given 1 hour prior to LPS administration) 3 hours post injection. The spleen from these mice were extracted and analyzed for DCs with CD86 expression. […] Moreover, the VGX1027-induced decrease in the percentage of cells that expressed CD86 and was associated with a decrease in the expression of CD86 per cell (FIG. 7b). Therefore, VGX-1027 inhibits LPS-induced production of Th17-promoting inflammatory cytokines by DCs in vitro and reduces LPS-induced maturation of DCs in vivo.

[5] = test system: systemic lupus erythematosus (SLE); experiment: NZB/NZW F1 model of systemic lupus erythematosus; assay type: in vivo, NZB/NZW F1 mice
Method: FIG. 19. Effects of VGX-1027 administration on survival rate (A), proteinuria (B) and serum anti-dsDNA antibodies (C) of NZB/NZW F1 mice treated for 20 weeks with either VGX-1027 or vehicle.
FIG. 20. Histopathological analysis (A) and relative phospho-STAT3 (B) levels in kidney sample of NZB/NZW F1 mice treated for 20 weeks with either VGX-1027 or vehicle.
To determine the effects of VGX-1027 on the development and progression of SLE, lupus-prone NZB/NZW F1 were treated daily with 5 mg/mouse VGX-1027 i.p. for 20 weeks, starting at 16 weeks of age. Control mice received an equal volume of vehicle. Control mice started to die at 20 weeks of age. By week 36, 62.5% of them were dead compared to the only 33.3% of treated mice (p=0.0487 by Log-rank test) (FIG. 19A). Improved survival was correlated with inhibition of renal disease. Proteinuria was assessed once a week. […] Eventually, all of the mice developed proteinuria but the delay in disease progression and prolonged survival of VGX-1027 treated animals remained evident (FIG. 19B).

DNBS-induced colitis = conditions: DNBS model; Mangano et al. 2008; cited from earlier work
[6] = test system: enterobacterial antigen-reactive CD4+CD25− T cells; conditions: in vitro; Mangano et al. 2008; cited from earlier work

CYP450 2C9, sequence (P11712 whole entry): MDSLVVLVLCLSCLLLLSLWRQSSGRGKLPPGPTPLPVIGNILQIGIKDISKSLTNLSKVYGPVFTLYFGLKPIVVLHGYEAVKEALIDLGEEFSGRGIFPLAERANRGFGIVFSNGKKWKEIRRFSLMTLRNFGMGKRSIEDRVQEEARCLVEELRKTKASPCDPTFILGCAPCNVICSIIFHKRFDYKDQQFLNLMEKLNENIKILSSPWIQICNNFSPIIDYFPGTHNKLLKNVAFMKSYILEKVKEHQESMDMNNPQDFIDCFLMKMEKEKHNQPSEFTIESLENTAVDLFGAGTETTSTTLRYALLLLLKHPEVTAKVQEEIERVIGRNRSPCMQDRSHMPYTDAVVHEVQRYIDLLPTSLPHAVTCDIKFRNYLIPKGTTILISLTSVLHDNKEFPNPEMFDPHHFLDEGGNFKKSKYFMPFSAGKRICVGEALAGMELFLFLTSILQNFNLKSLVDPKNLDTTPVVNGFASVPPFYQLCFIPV

## O=C(O)CC1CC(c2ccccc2)=NO1 (stereo not drawn) [VGX-1027, 3-phenyl-4,5-dihydro-5-isoxazoleacetic acid]
Oral absorption in mice
  oral absorption: rapidly absorbed
  time of highest plasma concentrations: 1 to 2 h
CYP450 2C9
  CYP450 inhibition: no significant inhibition
Metabolite monitoring
  metabolite peaks for the 3 monitored masses: no metabolite peaks were observed
[1]; LPS (5 μg/ml)
  TNF-α production: inhibited
[1]; MDP (25 μg/ml)
  TNF-α production: inhibited
[1]; ZYM (50 μg/ml)
  TNF-α production: inhibited
[1]; poly(I:C) (50 μg/ml)
  TNF-α production: did not affect
[2]; 48 hours, MTT
  viability: Greater than 80%
[2]; MTT assay and P1/Annexin V staining, up to 100 mM
  toxicity to cell lines: did not cause toxicity; also recorded: not toxic
[3]; 293Ts
  TNF-α production: did not affect
[3]; Jurkats
  TNF-α production: did not affect
[3]; PBMCs
  LPS-induced TNF-α production: inhibited
[3]; RAWs
  LPS-induced TNF-α production: inhibited
[3]; RD cells
  TNF-α production: did not affect
[3]; U937s
  LPS-induced TNF-α production: inhibited
[3]; primary monocytes
  LPS-induced TNF-α production: inhibited
[3]; undifferentiated CD4 T cells
  TNF-α production: did not affect
[4]
  IL-6 production: dramatically repressed
  IL-18 production: dramatically repressed
  IL-23 production: dramatically repressed
  TNF-α production: dramatically repressed
Splenic DCs
  expression of CD86 per cell (MFI): decrease
  overall percentage of DCs in the spleen: without affecting
Splenic DCs; 3 hours post LPS
  % of DCs that expressed CD86: reduced this percentage
[5]; 36-weeks old, p<0.0001
  serum anti-dsDNA autoantibodies: significant lower levels
[5]; at 26 weeks of age
  anti-dsDNA antibodies: Only slightly increased levels
[5]; by week 36, 5 mg/mouse i.p. daily for 20 weeks
  mice dead: 33.3%
[5]; end-stage nephritis, p=0.01
  renal histopathology mean score: 1.9±0.8
[5]; p=0.0234
  relative levels of renal p-STAT3 (ELISA): significant reduction
[5]; throughout the experimental period, p=0.0265
  levels of proteinuria: significantly lower
DNBS-induced colitis
  colonic production of proinflammatory cytokines (IL-1β, TNF-α, IL-12p70, IFN-γ): reduced colonic production
[6]
  proliferation of enterobacterial antigen-reactive CD4+CD25− T cells: inhibits
